Laboratory results taken from US20050202488A1, “Assay for therapies that inhibit expression of the cytosolic Cu/Zn superoxide dismutase (SOD1) gene” (The General Hospital Corporation, priority 2004, published 2005).

Tested on: human SOD1 promoter
Assay: SOD1 promoter-EGFP reporter high through-put screening assay in stably transfected PC12 cells
Format: cell-based, rat
Conditions: PC12 stable cell line treated 24 hrs with increasing mitomycin C concentration; FIG. 2
Excerpt: We have developed a cell-based, fluorescent high through-put screening assay to identify compounds that reduce SOD1 expression using a stable rat pheochromocytoma PC12 cell line with 2.2 kb of human SOD1 promoter sequence driving EGFP expression (FIG. 1).
The human SOD1 promoter was amplified by PCR from a control DNA sample using primers 5′ […] 3′ (SEQ ID NO:3) and 5′ […] 3′ (SEQ ID NO:4). Restriction sites were incorporated into the primers although these were not used for the cloning but to aid transfer into additional vectors in the future. PCR reactions were carried out in a final volume of 40 μl on a thermocycler (Hybaid). PCR reactions contained a final concentration of 3 U Taq polymerase (New England Biolabs, Beverly, Mass.), 150 ng of DNA, 1×PCR buffer, […] of each dNTP, 40 pmoles of forward and reverse primers (MWG-Biotech, High Point, N.C.), 2.5 mM MgCl2, and 5% DMSO. […]
Initial testing of the assay has been carried out using a known inhibitor of SOD1 expression, mitomycin C (Cho C., et al., (1997), The transcriptional repression of the human Cu/Zn superoxide dismutase(sod1) gene by the anticancer drug, mitomycin C(MMC), Biochem Mol Biol Int., 42:949-56). […] The level of EGFP fluorescence was read on a Wallac plate reader (Perkin Elmer, Boston, Mass.) (excitation 485 nm, emission 535 nm). […]

CO[C@@]12[C@H](COC(N)=O)C3=C(C(=O)C(C)=C(N)C3=O)N1C[C@@H]1N[C@@H]12 [mitomycin C]
EGFP fluorescence (relative expression level): progressive decrease in fluorescence
